Columns and labels:
[1] = system: flabby skin or skin wrinkles/finely-wrinkles; assay: Experiment 6: self-evaluation of lotions with AMP and/or CoQ10 on flabby skin or skin wrinkles/finely-wrinkles, three months; assay type: in vivo, human; details: lotion, 3 months
Description: Eleven women as volunteers, who had been suffering from skin wrinkles/finely-wrinkles or flabby skin, were allowed to wash their faces with any of the lotions having compositions in Table 5 three times a day for four months and then allowed to evaluate themselves about their face-skin conditions by comparing with those before use of the lotions. […] The influence of a combination use of α,α-trehalose or saccharide derivatives thereof, sodium hyaluronate and/or chondroitin sulfate, and adenosine monophosphate (may be abbreviated as “AMP”, hereinafter) and/or coenzyme Q10 (may be abbreviated as “CoQ10”, hereinafter) on the skin was examined by the following experiment. One hundred parts by weight of respective lotions were prepared by adding to fresh preparations of the same lotion with the basic composition ratio as used in Experiment 5 sodium hyaluronate, chondroitin sulfate, hydrous crystalline α,α-trehalose, a cosmetic grade specimen commercialized by Hayashibara Biochemical Laboratories Inc., Okayama, Japan, and “[…]”, a product name of a syrup having saccharide derivatives of α,α-trehalose commercialized by Hayashibara Biochemical Laboratories Inc., Okayama, Japan, AMP, and CoQ10 according to the combinations and compositions as in Table 6 below. The amounts of added saccharides are represented based on a dry solid basis. The syrup containing saccharide derivatives of α,α-trehalose was added to each lotion to give respective composition ratios as in Table 6. Any of the lotions was allowed to be used every day by 11 females who had been suffering from flabby skin or skin wrinkles/finely-wrinkles, three times a day for three months, and the results were evaluated on flabby skin or skin wrinkles/finely-wrinkles by the method similarly as in Experiment 5.

NHDF cells = assay: Experiment 2: collagen sedimented over cell surface and released in supernatant of NHDF cells, α,α-trehalose or maltose with AA-2G; assay type: cell-based, human; details: relative to AA-2G = 100
Method: Influence of α,α-trehalose and maltose on collagen production using NHDF cells was examined by the following experiment: Test solutions were prepared by dissolving either AA-2G; hydrous crystalline α,α-trehalose, a reagent grade specimen, commercialized by Hayashibara Biochemical Laboratories Inc., Okayama, Japan; or hydrous crystalline maltose, a reagent grade specimen, commercialized by Hayashibara Biochemical Laboratories Inc., Okayama; Japan, in […] The methods for culturing NHDF cells and quantifying the collagen-production level of the cells were conducted similarly as in Experiment 1. The collagen level in each culture supernatant of NHDF cells was determined in such a manner of collecting the culture supernatant and quantifying the collagen released in the supernatant by using “Sircol Collagen Quantification Kit”. As a control, D-MEM medium containing 50 μM AA-2G was used. These control and test solutions were respectively experimented using three wells, followed by calculating a mean value for collagen-production levels in the wells. The results are in Table 2 where the values are expressed with relative values for either or both of the levels of collagen, that had sedimented over the cell surfaces or released in the supernatants, in terms of their collagen-production levels of NHDF cells, which had been cultured in D-MEM medium containing 50 μM AA-2G, being regarded as 100.

[2] = saccharide one part by weight + AMP 0.1 + CoQ10 0.1
[3] = saccharide one part by weight + AMP 0.2
[4] = saccharide one part by weight + CoQ10 0.2
[5] = saccharide one part by weight + sodium hyaluronate 0.1 + chondroitin sulfate 0.1 + AMP 0.1 + CoQ10 0.1
[6] = saccharide one part by weight + sodium hyaluronate 0.1 + chondroitin sulfate 0.1 + AMP 0.2
[7] = saccharide one part by weight + sodium hyaluronate 0.1 + chondroitin sulfate 0.1 + CoQ10 0.2
[8] = saccharide one part by weight + sodium hyaluronate 0.1 + chondroitin sulfate 0.1
[9] = saccharide one part by weight alone, 3 times a day
[10] = saccharide 0.2 mg/ml + 50 μM AA-2G
[11] = saccharide 0.6 mg/ml + 50 μM AA-2G
[12] = saccharide 1.7 mg/ml + 50 μM AA-2G
[13] = saccharide 5.0 mg/ml + 50 μM AA-2G
[14] = saccharide 15.0 mg/ml + 50 μM AA-2G

SMILES: OC[C@H]1O[C@H](O[C@H]2O[C@H](CO)[C@@H](O)[C@H](O)[C@H]2O)[C@H](O)[C@@H](O)[C@@H]1O [α,α-trehalose]
- Evaluation A (remarkably efficacious) [1, 2]: 2 number of volunteers
- Evaluation B (efficacious) [1, 2]: 3 number of volunteers
- Evaluation C (slightly efficacious) [1, 2]: 5 number of volunteers
- Evaluation D (inefficacious) [1, 2]: 1 number of volunteers
- Evaluation A (remarkably efficacious) [1, 3]: 2 number of volunteers
- Evaluation B (efficacious) [1, 3]: 2 number of volunteers
- Evaluation C (slightly efficacious) [1, 3]: 6 number of volunteers
- Evaluation D (inefficacious) [1, 3]: 1 number of volunteers
- Evaluation A (remarkably efficacious) [1, 4]: 1 number of volunteers
- Evaluation B (efficacious) [1, 4]: 3 number of volunteers
- Evaluation C (slightly efficacious) [1, 4]: 6 number of volunteers
- Evaluation D (inefficacious) [1, 4]: 1 number of volunteers
- Evaluation A (remarkably efficacious) [1, 5]: 5 number of volunteers
- Evaluation B (efficacious) [1, 5]: 5 number of volunteers
- Evaluation C (slightly efficacious) [1, 5]: 1 number of volunteers
- Evaluation D (inefficacious) [1, 5]: 0 number of volunteers
- Evaluation A (remarkably efficacious) [1, 6]: 3 number of volunteers
- Evaluation B (efficacious) [1, 6]: 4 number of volunteers
- Evaluation C (slightly efficacious) [1, 6]: 4 number of volunteers
- Evaluation D (inefficacious) [1, 6]: 0 number of volunteers
- Evaluation A (remarkably efficacious) [1, 7]: 4 number of volunteers
- Evaluation B (efficacious) [1, 7]: 3 number of volunteers
- Evaluation C (slightly efficacious) [1, 7]: 4 number of volunteers
- Evaluation D (inefficacious) [1, 7]: 0 number of volunteers
- Evaluation A (remarkably efficacious) [1, 8]: 2 number of volunteers
- Evaluation B (efficacious) [1, 8]: 4 number of volunteers
- Evaluation C (slightly efficacious) [1, 8]: 4 number of volunteers
- Evaluation D (inefficacious) [1, 8]: 1 number of volunteers
- Evaluation A (remarkably efficacious) [1, 9]: 1 number of volunteers
- Evaluation B (efficacious) [1, 9]: 2 number of volunteers
- Evaluation C (slightly efficacious) [1, 9]: 6 number of volunteers
- Evaluation D (inefficacious) [1, 9]: 2 number of volunteers
- Collagen-production level, In supernatant (NHDF cells; [10]): 103
- Collagen-production level, Total (NHDF cells; [10]): 101
- Collagen-production level, In supernatant (NHDF cells; [11]): 203
- Collagen-production level, Total (NHDF cells; [11]): 131
- Collagen-production level, In supernatant (NHDF cells; [12]): 250
- Collagen-production level, Total (NHDF cells; [12]): 154
- Collagen-production level, In supernatant (NHDF cells; [13]): 232
- Collagen-production level, Total (NHDF cells; [13]): 169
- Collagen-production level, In supernatant (NHDF cells; [14]): 1058
- Collagen-production level, Total (NHDF cells; [14]): 335

Reference: patent US20090110671A1, “AGENT FOR ENHANCHING THE PRODUCTION OF COLLAGEN AND IT'S USE” (priority 2005, published 2009)
